Assay results taken from patent US6461997B1, “Triazole sulfones having herbicidal activity” (Monsanto Technology LLC, priority 1999, dated 2002).

What was measured:
[1] = test system: soybean (GLYMX); experiment: Selectivity test, PPI, warm season crop; format: in vivo, Glycine max; conditions: PPI application
Experimental: (§1) A pre-prepared topsoil mixture (described above) was placed in a pot and compacted to a depth of 1.0 to 1.25 cm from the top of the pot. Seeds of each of several monocotyledonous and dicotyledonous annual plant species were placed on top of the soil. A sufficient quantity of soil to cover the seeds and level fill the pot was weighed into an open container. A known amount of the test compound was dissolved or suspended in an organic solvent and applied by spraying to this cover soil. The cover soil was thoroughly mixed to distribute the test compound throughout the cover soil, and was then applied as a cover layer over the seeds. Untreated soil was used as a cover layer for control pots. After treatment the plants were placed in a greenhouse where they received 0.64 cm of overhead irrigation. All subsequent watering consisted of a light overhead mist and/or subirrigation as needed for germination and growth. Tables 9 and 10 below relate to warm season plant species which were placed after pre-emergence treatment in a greenhouse with a 30/21° C. day/night temperature regime. Tables 11 and 12 below relates to cool season plant species placed after pre-emergence treatment in a greenhouse or growth chamber with an 18/13° C. day/night temperature regime. Only the compounds of Examples 1, 6, 8, 11, 13 and 15-20 were included in PPI tests.
(§2) Approximately 14 days after planting and treating, the plants were observed and herbicidal efficacy recorded as percent inhibition by comparison with untreated plants.
Additional pre-emergence and PPI tests were conducted by the procedures described above, on warm and cool season weed species in the presence of crop species, to assess herbicidal selectivity. Crop species included in warm season tests were corn (Zea mays, ZEAMX), rice (Oryza sativa, ORYSA) and soybean (Glycine max, GLYMX). Crop species included in cool season tests were wheat (Triticum aestivum, TRZAW), barley (Hordeunm vulgare, HORVX) and oilseed rape (Brassica napus, BRSNS).
Tables 15 and 16 relate to pre-emergence and PPI tests respectively on warm season species. Table 17 relates to pre-emergence tests on cool season species.

[2] = test system: XANST (cocklebur); experiment: Pre-plant incorporated (PPI) herbicidal activity, warm season; format: in vivo, Xanthium strumarium; conditions: PPI application
Experimental: (§3) In another set of tests, the pre-plant incorporated (PPI) activity of compounds of this invention was evaluated on the same species as for the pre-emergence tests described above. In the PPI tests the following procedure, designed to simulate PPI application, was used.
as §1, §2

[3] = test system: SINAR (wild mustard); experiment: Pre-emergence herbicidal activity, cool season; format: in vivo, Sinapis arvensis; conditions: lowest tested rate with 80% or greater inhibition; rates 300, 100, 30, 10 g/ha; about 14 days
Method in brief: (§4)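 GR80 values derive from percent inhibition relative to untreated plants, read roughly 14 days after sowing and pre-emergence soil-surface treatment (compound in 50:50 acetone/water; rates typically 10, 30, 100, 300 g/ha). Warm-season weeds grew at 30/21° C day/night, cool-season ones at 18/13° C; an asterisk marks activity without reaching 80% at the highest rate.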

[4] = test system: ALOMY (blackgrass); experiment: Pre-plant incorporated (PPI) herbicidal activity, cool season; format: in vivo, Alopecurus myosuroides; conditions: for PPI activity GR80, ALOMY: pre-plant incorporated, lowest tested rate with 80% or greater inhibition, about 14 days; for Percent inhibition ALOMY: weed, PPI application
Experimental: as §3, §1, §2

[5] = test system: CHEAL (common lambsquarters); experiment: Pre-emergence herbicidal activity, warm season; format: in vivo, Chenopodium album; conditions: GR80 = lowest tested rate (300, 100, 30, 10 g/ha) with 80% or greater inhibition; approx. 14 days after treating; 30/21° C.
Method in brief: as §4

[6] = test system: SETFA (giant foxtail); experiment: Pre-emergence herbicidal activity, warm season; format: in vivo, Setaria faberi; conditions: for Pre-emergence activity (GR80) SETFA: GR80 = lowest tested rate (300, 100, 30, 10 g/ha) with 80% or greater inhibition, approx. 14 days after treating, 30/21° C.
Method in brief: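 Seeds sown in sterilised fertilised topsoil received surface-applied compound in 50:50 acetone/water, typically at 300, 100, 30 and 10 g/ha, then greenhouse-grown at 30/21° C (warm-season species) or 18/13° C (cool-season species). Percent inhibition versus untreated plants was scored at about 14 days, giving GR80; an asterisk marks activity short of 80% at the top rate.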

[7] = test system: DIGSA (large crabgrass); experiment: Pre-emergence herbicidal activity, warm season; format: in vivo, Digitaria sanguinalis; conditions: for Pre-emergence activity (GR80) DIGSA: GR80 = lowest tested rate (300, 100, 30, 10 g/ha) with 80% or greater inhibition, approx. 14 days after treating, 30/21° C.
Method in brief: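 Pre-emergence soil-surface spray; rates 300/100/30/10 g/ha; acetone:water 50:50 diluent. Warm-season species (PANMI, DIGSA) grown at 30/21 °C, cool-season species (ALOMY, POLCO) at 18/13 °C. Inhibition scored ~14 d after treatment versus untreated controls → GR80.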

CCN(CC)C(=O)n1cnc(S(=O)(=O)C(F)(F)SCC(=O)OC)n1 [Example 11]
Percent inhibition GLYMX ([1]; 10 g/ha): 0%
Percent inhibition GLYMX ([1]; 30 g/ha): 0%
Percent inhibition GLYMX ([1]; 100 g/ha): 0%
Percent inhibition GLYMX ([1]; 300 g/ha): 10%
Percent inhibition GLYMX ([1]; 900 g/ha): 30%
Percent inhibition XANST ([2]; 10 g/ha): 0%
Percent inhibition XANST ([2]; 30 g/ha): 0%
Percent inhibition XANST ([2]; 100 g/ha): 0%
Percent inhibition XANST ([2]; 300 g/ha): 0%
Percent inhibition XANST ([2]; 900 g/ha): 0%
Pre-emergence activity GR80, SINAR [3]: 100 g/ha
PPI activity GR80, ALOMY [4]: 300 g/ha
Percent inhibition ALOMY ([4]; 10 g/ha): 0%
Percent inhibition ALOMY ([4]; 30 g/ha): 0%
Percent inhibition ALOMY ([4]; 100 g/ha): 20%
Percent inhibition ALOMY ([4]; 300 g/ha): 45%
Percent inhibition ALOMY ([4]; 900 g/ha): 100%
Pre-emergence activity (GR80) CHEAL [5]: 300 g/ha

CCN(CC)C(=O)n1cnc(S(=O)(=O)C(F)(F)SCCOC)n1 [Example 13]
Percent inhibition GLYMX ([1]; 10 g/ha): 0%
Percent inhibition GLYMX ([1]; 30 g/ha): 0%
Percent inhibition GLYMX ([1]; 100 g/ha): 0%
Percent inhibition GLYMX ([1]; 300 g/ha): 30%
Percent inhibition GLYMX ([1]; 900 g/ha): 70%
Percent inhibition XANST ([2]; 10 g/ha): 0%
Percent inhibition XANST ([2]; 30 g/ha): 0%
Percent inhibition XANST ([2]; 100 g/ha): 0%
Percent inhibition XANST ([2]; 300 g/ha): 0%
Percent inhibition XANST ([2]; 900 g/ha): 30%
Pre-emergence activity GR80, SINAR [3]: [empty]
Pre-emergence activity (GR80) SETFA [6]: * (activity observed, at least at highest rate, but <80% inhibition)
PPI activity GR80, ALOMY [4]: 100 g/ha
Percent inhibition ALOMY ([4]; 10 g/ha): 40%
Percent inhibition ALOMY ([4]; 30 g/ha): 90%
Percent inhibition ALOMY ([4]; 100 g/ha): 99%
Percent inhibition ALOMY ([4]; 300 g/ha): 99%
Percent inhibition ALOMY ([4]; 900 g/ha): 100%
Pre-emergence activity (GR80) CHEAL [5]: 300 g/ha

CCN(CC)C(=O)n1cnc(S(=O)(=O)C(F)(F)C(F)(F)SC)n1 [Example 14]
Pre-emergence activity GR80, SINAR [3]: [empty]
Pre-emergence activity (GR80) SETFA [6]: 100 g/ha
Pre-emergence activity (GR80) CHEAL [5]: 300 g/ha
Pre-emergence activity (GR80) DIGSA [7]: 100 g/ha

CCN(CC)C(=O)n1cnc(S(=O)(=O)C(F)F)n1 [Example 15, 1-(N,N-diethylcarbamoyl)-3-(difluoromethylsulfonyl)-1,2,4-triazole]
inhibition at 10 g/ha ([1]; Glycine max, 10 g/ha, read-out: Percent inhibition GLYMX): 0%
inhibition at 30 g/ha ([1]; Glycine max, 30 g/ha, read-out: Percent inhibition GLYMX): 0%
inhibition at 100 g/ha ([1]; Glycine max, 100 g/ha, read-out: Percent inhibition GLYMX): 0%
inhibition at 300 g/ha ([1]; Glycine max, 300 g/ha, read-out: Percent inhibition GLYMX): 15%
inhibition at 900 g/ha ([1]; Glycine max, 900 g/ha, read-out: Percent inhibition GLYMX): 65%
inhibition at 10 g/ha ([2]; Xanthium strumarium, 10 g/ha, read-out: Percent inhibition XANST): 0%
inhibition at 30 g/ha ([2]; Xanthium strumarium, 30 g/ha, read-out: Percent inhibition XANST): 0%
inhibition at 100 g/ha ([2]; Xanthium strumarium, 100 g/ha, read-out: Percent inhibition XANST): 0%
inhibition at 300 g/ha ([2]; Xanthium strumarium, 300 g/ha, read-out: Percent inhibition XANST): 0%
Pre-emergence activity (GR80) SETFA [6]: 100 g/ha
inhibition at 10 g/ha ([6]; Setaria faberi, pre-emergence application, 10 g/ha, read-out: Percent inhibition, weed SETFA): 0%
inhibition at 30 g/ha ([6]; Setaria faberi, pre-emergence application, 30 g/ha, read-out: Percent inhibition, weed SETFA): 0%
inhibition at 100 g/ha ([6]; Setaria faberi, pre-emergence application, 100 g/ha, read-out: Percent inhibition, weed SETFA): 99%
inhibition at 300 g/ha ([6]; Setaria faberi, pre-emergence application, 300 g/ha, read-out: Percent inhibition, weed SETFA): 70%
inhibition at 900 g/ha ([6]; Setaria faberi, pre-emergence application, 900 g/ha, read-out: Percent inhibition, weed SETFA): 100%
PPI activity GR80, ALOMY [4]: 100 g/ha
inhibition at 10 g/ha ([7]; Digitaria sanguinalis, pre-emergence application, 10 g/ha, read-out: Percent inhibition, weed DIGSA): 70%
inhibition at 30 g/ha ([7]; Digitaria sanguinalis, pre-emergence application, 30 g/ha, read-out: Percent inhibition, weed DIGSA): 40%
inhibition at 100 g/ha ([7]; Digitaria sanguinalis, pre-emergence application, 100 g/ha, read-out: Percent inhibition, weed DIGSA): 80%
inhibition at 300 g/ha ([7]; Digitaria sanguinalis, pre-emergence application, 300 g/ha, read-out: Percent inhibition, weed DIGSA): 100%
inhibition at 900 g/ha ([7]; Digitaria sanguinalis, pre-emergence application, 900 g/ha, read-out: Percent inhibition, weed DIGSA): 100%
Pre-emergence activity (GR80) DIGSA [7]: 30 g/ha
